Earlier results on one compound are cited in patent publication EP4302832A1, “PALBOCICLIB FORMULATION CONTAINING GLUCONO DELTA LACTONE” (Lotus Pharmaceutical Co., Ltd., priority 2022, dated 2024).

For series [1] the following is noted: low pH (2.1-4.5).

Each structure is given as a SMILES string. Like-named read-outs stand apart in the source and are kept apart here.

Usually pKa stands for the pH at which an ionisable group is half protonated. Take `CC(=O)c1c(C)c2cnc(Nc3ccc(N4CCNCC4)cn3)nc2n(C2CCCC2)c1=O` [Palbociclib, 6-acetyl-8-cyclopentyl-5-methyl-2-(5-piperazin-1-yl-pyridin-2-ylamino)-8H-pyrido[2,3-d]-pyrimidin-7-one]: in series [1], the solubility result was “water soluble”. For the same compound, the pKa (the pyridine nitrogen) is on record as about 4.1 and the pKa result (the secondary piperazine nitrogen) was “approximately 7.3”.
